In data set [1] the test system is TtgR H114A (Pseudomonas putida DOT-T1E). As to the kind of experiment: EMSA. Conditions: 5 uM naringenin; EMSA: 10 mM Tris-HCl pH 7.0, 250 mM NaCl, 10 mM Mg acetate, 10 mM KCl, 5% glycerol, 0.1 mM EDTA, 5 mM DTT, 20 ug/ml poly(dI-dC), 200 ug/ml BSA; 10 min at 30 C ….
The subject of data set [2] is TtgR N110A (Pseudomonas putida DOT-T1E). Briefly: EMSA. Conditions: 5 uM phloretin; EMSA: 10 mM Tris-HCl pH 7.0, 250 mM NaCl, 10 mM Mg acetate, 10 mM KCl, 5% glycerol, 0.1 mM EDTA, 5 mM DTT, 20 ug/ml poly(dI-dC), 200 ug/ml BSA; 10 min at 30 C …. Background: Mobility shift assays separate free from complexed probe on a gel.
Data set [3] relates to TtgR E78A (Pseudomonas putida DOT-T1E). Briefly: EMSA. Particulars: 5 uM naringenin; EMSA: 10 mM Tris-HCl pH 7.0, 250 mM NaCl, 10 mM Mg acetate, 10 mM KCl, 5% glycerol, 0.1 mM EDTA, 5 mM DTT, 20 ug/ml poly(dI-dC), 200 ug/ml BSA; 10 min at 30 C ….
Data set [4] addresses TtgR (TtgR^WT) (Pseudomonas putida, UniProt Q9AIU0, H114A). Briefly: biochemical. The source says:
(§1) isothermal titration calorimetry, one set of sites on TtgR (TtgR^WT)

Data set [5] addresses TtgR (TtgR^WT) (Pseudomonas putida, UniProt Q9AIU0, N110A). Briefly: biochemical.
Description: as §1

Data set [6] concerns the target TtgR (TtgR^WT) (Pseudomonas putida, UniProt Q9AIU0, E78A). Briefly: biochemical.
Description: as §1

In data set [7] the target is T1, TtgR (TtgR^WT) (Pseudomonas putida, UniProt Q9AIU0).
T1 construct: homodimer
Briefly: isothermal titration calorimetry, one set of sites. The data set is classed as binding. Background: Isothermal titration calorimetry measures the heat released or taken up as one component is titrated into another.

Regarding “ttgABC-ttgR intergenic region (operator), 189 bp”, the binding signal (% DNA released) in data set [1] and in data set [3] was 30 each time. The same compound came in with a binding signal (% DNA dissociated) in data set [2] of 66.
For the compound `O=C(N[C@H](CO)[C@H](O)c1ccc([N+](=O)[O-])cc1)C(Cl)Cl` [chloramphenicol], the Kd (commonly the concentration at which binding is half-saturated) at TtgR (TtgR^WT) [4] worked out at 8.5 ± 0.5 µM; at TtgR (TtgR^WT) [5], 15.6 ± 2 µM; at TtgR (TtgR^WT) [6], 18.5 ± 1 µM; on TtgR (TtgR^WT) [7], 5.6 ± 0.4 µM.
In the case of `O=C(CCc1ccc(O)cc1)c1c(O)cc(O)cc1O` [phloretin], the Kd came out at 1.3 ± 0.1 µM on TtgR (TtgR^WT) [4], 1 ± 0.1 µM on TtgR (TtgR^WT) [5], 0.7 ± 0.1 µM on TtgR (TtgR^WT) [6] and 1.5 ± 0.2 µM at TtgR (TtgR^WT) [7].

The values are drawn from article PMC4589371, “Molecular Binding Mechanism of TtgR Repressor to Antibiotics and Antimicrobials” (PLoS ONE, 2015).
